# In patent US9145377B2, “G-quadruplex stabilising agent” (University College London, priority 2011, dated 2015):
# What was measured:
# [1] = Solubility limit in aqueous media (dose ranging, sterile dH2O); assay type: physicochemical; settings: dissolved in sterile dH2O, intra-peritoneal dose ranging in CD1 mice
# Description: A dose range assay was performed in female CD1 mice, with an initial mean weight of 25 g (Harlan UK Ltd,).
# HSP-90 = assay: Western blotting for HSP-90 in RCC4 and RCC4VHL cells; assay type: cell-based, human; settings: CL67 5×IC50, normoxia (20% oxygen)
# From the text: (§1) A498 human renal, 786-0 human renal, MCF-7 human breast, Mia-Pa-Ca human pancreatic, Panc-1 human pancreatic, and PC-3 human prostate cancer cells were obtained from American Type Culture Collection (Rockville, Md.). Human RCC4 and RCC4/VHL cells were obtained from Professor P. Maxwell (University College London, UK). RCC4 cells lack pVHL therefore express constitutively high levels of HIF-1α. These cells were stably transfected with a wild-type pVHL gene, as previously described. All cells were grown in humidified 95% air, 5% CO2 at 37° C. in Dulbecco's modified Eagle's medium (DMEM), RPMI or MEM medium supplemented with 10% fetal bovine serum (FBS) and 2 mM L-Glutamine according to advice from ATCC (all reagents were obtained from Gibco, Invitrogen, UK). HIF-1α and HIF-2α antibodies were obtained from BD Transduction Labs, AKT antibody was obtained from Cell Signalling Biotechnology, and lamin NC, actin, HIF-1β, HSP-90, and Raf-1 antibodies were from Santa Cruz Biotechnology.
# (§2) Western blotting was performed as described previously. Blots were quantified using ImageQuant software (Molecular Dynamics). Nuclear and cytoplasmic extracts were prepared using NE-PER Nuclear and Cytoplasmic Extraction Reagents (Pierce Biotechnology).
# (§3) Cells were then lysed and Western blotting was performed. Probing for HSP-90, Raf-1, AKT and actin (as a loading control).
# renal carcinoma cells = assay: Growth inhibition, sulforhodamine B (SRB) assay, 96 h exposure; assay type: cell-based, human; settings: normoxia (20% oxygen)
# From the text: as §1
# HIF-1β = assay: Western blotting for HIF-1β protein; assay type: cell-based, human; settings: RCC4 or 786-0 cells, 4 h
# From the text: as §1
# (§4) Culture flasks were incubated for various times at 37° C. in humidified air, 5% CO2 (normoxia) or 1% O2, 5% CO2, 94% N2 (hypoxia) using an InVivo Hypoxia Workstation 400 with a Ruskin hypoxic gas mixer (Biotrace International). […]
# (§5) Western blotting was performed as described previously. Blots were quantified using ImageQuant software (Molecular Dynamics). […]
# HIF-1α mRNA = assay: Reverse transcriptase PCR (qRT-PCR) of HIF-1α transcripts in RCC4 cells; assay type: cell-based, human; settings: 4 h, normoxia
# Description: Total RNA was isolated from approximately 10^7 cells using the RNeasy kit (Qiagen, Crawley, UK) according to the manufacturer's protocol. HIF-1α transcripts were quantified using two-step, quantitative real time PCR (qRTPCR). First-strand cDNA synthesis was performed for each sample with a Protoscript M-MuLV Taq RT-PCR kit (New England Biolabs, MA, USA) using 1 μg total RNA and oligo-dT primers. qPCR was performed using Stratagene Brilliant III SYBR Green master mix in a Stratagene MX-3000P instrument (Agilent, Tex., USA) according to the manufacturer's instructions using 2 ng input cDNA and primers at 300 nM. […] Samples were normalised to β-actin. Differences in PCR efficiency were normalised using relative standard curves of cDNA pooled from all samples. P-values were determined for 2000 randomisations.
# Cells were then lysed and RNA was prepared using a Qiagen RNeasy kit. RT PCR was then performed to determine relative levels of HIF-1α mRNA in each sample.
# HIF-1 transactivation = assay: Luciferase reporter assay (hypoxia response element, HRE) in RCC4 cells; assay type: cell-based, human; settings: normoxia or hypoxia (1% oxygen), 4 h
# Description: A pGL3 firefly luciferase reporter plasmid containing the phosphoglycerate kinase hypoxia-responsive element was supplied by Professor P. Maxwell (University College London, UK) [1]. The empty pGL3 control plasmid and the pRL-CMV Renilla luciferase plasmids were obtained from Promega. […] Firefly and Renilla luciferase activities were measured using the Dual Luciferase Reporter Assay System (Promega) according to the manufacturer's instructions.
# In FIG. 6(A) RCC4 cells were co-transfected with either a vector expressing luciferase under the control of multiple copies of the hypoxia response element (HRE; kindly donated by G. Mellillo, NCI) or an empty vector control (pGL3) in addition to a vector expressing renilla luciferase (to control for transfection efficiency). […] Luciferase activity was then measured using the Promega Dual Luciferase assay Kit and results are expressed as a percentage of the activity of untreated, normoxic cells.
# VEGF = VEGF measurement in cell culture medium by ELISA; assay type: cell-based, human; settings: RCC4 cells, CL67 5×IC50 or dose indicated, 4 h or time indicated
# Description: (§6) Culture flasks were incubated for various times at 37° C. in humidified air, 5% CO2 (normoxia) or 1% O2, 5% CO2, 94% N2 (hypoxia) using an InVivo Hypoxia Workstation 400 with a Ruskin hypoxic gas mixer (Biotrace International). After incubation, cells were washed twice with cold PBS equilibrated with the same gas mixture. In some studies, medium was removed at the end of incubation and stored at […] for measurement of vascular endothelial growth factor (VEGF) levels.
# Raf-1 = assay: Western blotting for Raf-1 in RCC4 and RCC4VHL cells; assay type: cell-based, human; settings: CL67 5×IC50, normoxia (20% oxygen)
# From the text: as §1, §2, §3
# HIF-2α = assay: Western blotting for HIF-2α protein in 786-0 cells; assay type: cell-based, human; settings: hypoxia (1% oxygen), 4 h dose course
# From the text: as §1, §4, §5
# HIF-1α = assay: Western blotting for HIF-1α protein in RCC4 / RCC4VHL cells; assay type: cell-based, human
# From the text: as §1, §6, §2
# Cells were then lysed and Western blotting was performed probing for HIF-1α, HIF-2α, HIF-1β, or lamin NC (as a loading control).
# AKT = assay: Western blotting for AKT in RCC4 and RCC4VHL cells; assay type: cell-based, human; settings: CL67 5×IC50, normoxia (20% oxygen)
# From the text: as §1, §2, §3
compound,measurement,setting,value
"CCN(CC)CC(=O)Nc1cccc(-n2cc(-c3ccc4ccc(-c5cn(-c6cccc(NC(=O)CN(CC)CC)c6)nn5)cc4c3)nn2)c1 [CL67, N,N′-((4,4′-(Naphthalene-2,7-diyl)bis(1H-1,2,3-triazole-4,1-diyl))bis(3,1-phenylene))bis(2-(diethylamino)acetamide)]",solubility limit of the drug in aqueous media,[1],10 mg/kg
same,expression of HSP90 (Western blot),HSP-90,No differences
same,"sensitivity of renal cancer cells to inhibition of cell growth compared to other cancer cell lines (breast, pancreatic, prostate)",renal carcinoma cells,enhanced sensitivity
same,HIF-1β protein level (Western blot),HIF-1β,did not affect
same,relative expression of HIF-1α mRNA compared to untreated control cells (RT PCR),HIF-1α mRNA,inhibits formation of HIF-1α mRNA
same,melting point,,97 to 99 °C
same,HIF-1 transactivation (HRE luciferase activity),HIF-1 transactivation,inhibited
same,VEGF levels in medium (ELISA),VEGF,inhibited
same,expression of Raf-1 (Western blot),Raf-1,No differences
same,HIF-2α protein level (Western blot),HIF-2α,inhibited
same,HIF-1α protein (Western blot) in RCC4VHL cells,"HIF-1α; RCC4VHL cells (stably transfected with pVHL), 0, 1, 5 or 10×IC50, normoxia or hypoxia (1% oxygen)",inhibited
same,HIF-1α protein (Western blot) in RCC4 cells (lacking pVHL),"HIF-1α; RCC4 cells, 0, 1, 5 or 10×IC50, normoxia (20% oxygen) or hypoxia (1% oxygen)",inhibited
same,HIF-1α protein level (Western blot),"HIF-1α; RCC4 cells, normoxia, 4 h dose course, time course at 5×IC50",inhibited
same,expression of AKT (Western blot),AKT,No differences
